From US20240024273A1, “TOPICAL ADMINISTRATION OF 2-(DIETHYLAMINO)ETHYL 2-(4-ISOBUTYLPHENYL)PROPRIONATE FOR TREATMENT OF DISEASES” (TECHFIELDS PHARMA CO., LTD., priority 2020, published 2024)

Legend:
[1] = system: osteoarthritis of the knee; assay: Second Phase 2 study: Subject's pain Assessment Scores (SPA); format: in vivo, human; conditions: Week 12; for Subject's pain Assessment Scores, % of improvement from Oral Ibuprofen / Subject's pain Assessment Scores, % of improvement from Placebo / Subject's pain Assessment Scores, % of improvement from baseline / Subject's pain Assessment Scores, Changes from Baseline (LS Mean) / Subject's pain Assessment Scores, Week 12 (LS Mean) / Subject's pain Assessment Scores, Different from oral ibuprofen (LS Mean) / Subject's pain Assessment Scores, Different from placebo (LS Mean): all subjects
Protocol: Subjects will record the following information in a Daily Diary starting at Screening: the amount of knee pain in the target knee while walking during the preceding 24 hours (using a 100 mm visual analog scale [VAS]), the times and number of sprays for each administration of study medication, the times when the subject washes his/her knees and/or takes a shower, the number of tablets of rescue medication taken that day and the times taken, the reason for taking the rescue medication (e.g., knee pain, headache, low back pain), any other concomitant medications taken that day, and any AEs occurring that day.

[2] = pig, in vivo, topical or ocular, 9 mg/kg
[3] = Phase 1 clinical study: plasma pharmacokinetics of prodrug and ibuprofen; format: in vivo, human; conditions: steady-state, 70 mg
[4] = system: osteoarthritis of the knee; assay: Second Phase 2 study: WOMAC overall score; format: in vivo, human
Description: This is a Phase 2, multicenter, randomized, double blind (within dose), Ibuprofen-placebo controlled, parallel group, dose range finding study to evaluate the efficacy, safety, and PK of 2-(diethylamino)ethyl 2-(4-isobutylphenyl)propionate spray in adult subjects with clinically symptomatic OA of the knee. For subjects with bilateral knee pain, both knees will be treated, but the most symptomatic knee (ie, the most painful knee as measured by the Western Ontario and McMaster University Osteoarthritis Index [WOMAC® 3.1] pain subscale score at Screening) will be designated as the target knee for efficacy analyses. For subjects with unilateral knee pain, only the symptomatic (target) knee will be treated.
The VAS version of the WOMAC will be used for the Primary and Secondary Efficacy Endpoints. Efficacy endpoints will be assessed at Screening and Baseline (Day 1) and at the Week 2, Week 4, Week 8, and Week 12/EOS visits.
4.9.2. Secondary Efficacy Endpoints: • 1. Change from Baseline in the WOMAC (VAS) pain subscale score for the target knee at 2, 8, and 12 weeks of treatment; • 2. Change from Baseline in the WOMAC (VAS) stiffness subscale scores for the target knee and WOMAC (VAS) functional ability subscale scores at 2, 4, 8, and 12 weeks of treatment; • 3. Change from Baseline in the overall WOMAC (VAS) score at 2, 4, 8, and 12 weeks of treatment; • 4. Subject's global assessment of disease status of the target knee at 2, 4, 8, and 12 weeks of treatment; • 5. Subject's global assessment of response to therapy of the target knee at 2, 4, 8, and 12 weeks of treatment; • 6. Amount of rescue medication (acetaminophen) consumed per day for target knee pain.
The Secondary Efficacy Endpoints, change from Baseline in the WOMAC subscale scores for pain, stiffness, and functional ability, and overall WOMAC score at 2, 4, 8, and 12 weeks of treatment, will be analyzed using the same methods as for the Primary Efficacy Endpoint.

[5] = 17.5 mg/knee BID (n = 19), first 130 subjects
[6] = 17.5 mg/knee BID, Week 12, first 130 subjects
[7] = Week 12, 4.375 mg/knee BID (n = 23), first 130 subjects
[8] = Week 12, 8.75 mg/knee BID (n = 24), first 130 subjects
[9] = Week 12, 17.5 mg/knee BID (n = 19), first 130 subjects
[10] = all subjects, 4.375 mg/knee BID, n = 49, Week 12
[11] = all subjects, 8.75 mg/knee BID, n = 54, Week 12
[12] = all subjects, 17.5 mg/knee BID, n = 52, Week 12

## CCN(CC)CCOC(=O)C(C)c1ccc(CC(C)C)cc1 (centres unmarked) [2-(diethylamino)ethyl 2-(4-isobutylphenyl)propionate]
[1]; [5]
  Subject’s pain Assessment Scores, Different from oral ibuprofen (LS Mean): −14.1 mm
  Subject’s pain Assessment Scores, Different from placebo (LS Mean): −21.0 mm
  Subject’s pain Assessment Scores, Week 12 (LS Mean): 28.7 mm
[1]; 4.375 mg/knee BID, n = 49
  Subject's pain Assessment Scores, % of improvement from Oral Ibuprofen: 4.9%
  Subject's pain Assessment Scores, % of improvement from Placebo: −3.5%
  Subject's pain Assessment Scores, % of improvement from baseline: −40.5%
  Subject's pain Assessment Scores, Changes from Baseline (LS Mean): −25.6 mm
  Subject's pain Assessment Scores, Week 12 (LS Mean): 37.5 mm
[1]; 8.75 mg/knee BID, n = 54
  Subject's pain Assessment Scores, % of improvement from Oral Ibuprofen: −3.0%
  Subject's pain Assessment Scores, % of improvement from Placebo: −11.4%
  Subject's pain Assessment Scores, % of improvement from baseline: −48.4%
  Subject's pain Assessment Scores, Changes from Baseline (LS Mean): −31.4 mm
  Subject's pain Assessment Scores, Different from oral ibuprofen (LS Mean): −0.8 mm
  Subject's pain Assessment Scores, Different from placebo (LS Mean): −7.2 mm
  Subject's pain Assessment Scores, Week 12 (LS Mean): 33.5 mm
[1]; 17.5 mg/knee BID, n = 52
  Subject's pain Assessment Scores, % of improvement from Oral Ibuprofen: −8.2%
  Subject's pain Assessment Scores, % of improvement from Placebo: −16.6%
  Subject's pain Assessment Scores, % of improvement from baseline: −53.6%
  Subject's pain Assessment Scores, Changes from Baseline (LS Mean): −34.6 mm
  Subject's pain Assessment Scores, Different from oral ibuprofen (LS Mean): −4.1 mm
  Subject's pain Assessment Scores, Different from placebo (LS Mean): −10.5 mm
  Subject's pain Assessment Scores, Week 12 (LS Mean): 30.0 mm
[2]
  cartilage AUClast: 23910 ng·h/mL
  muscle AUClast: 35890 ng·h/mL
  plasma AUClast: 1516 ng·h/mL
[3]
  relative bioavailability of spray vs topical application (plasma ibuprofen): comparable at steady-state
[4]; [6]
  WOMAC overall, difference from oral ibuprofen: −15.2 mm
  WOMAC overall, difference from placebo: −18.2 mm
[4]; 17.5 mg/knee BID, all subjects
  efficacy vs oral ibuprofen (3×400 mg/day): higher efficacy than oral ibuprofen (3×400 mg/day), but not significantly
  efficacy vs placebo: higher efficacy than placebo significantly
[4]; 4.375 mg/knee BID (n = 23), first 130 subjects
  WOMAC Overall Scores, Baseline (LS Mean): 59.3 mm
[4]; 8.75 mg/knee BID (n = 24), first 130 subjects
  WOMAC Overall Scores, Baseline (LS Mean): 60.7 mm
[4]; [5]
  WOMAC Overall Scores, Baseline (LS Mean): 63.4 mm
[4]; [7]
  WOMAC Overall Scores, % of improvement from Oral Ibuprofen: −10.1%
  WOMAC Overall Scores, % of improvement from baseline: −43.2%
  WOMAC Overall Scores, % of improvement from placebo: −13.0%
  WOMAC Overall Scores, Changes from Baseline (LS Mean): −25.6 mm
  WOMAC Overall Scores, Different from oral ibuprofen (LS Mean): −4.1 mm
  WOMAC Overall Scores, Different from placebo (LS Mean): −7.1 mm
  WOMAC Overall Scores, Week 12 (LS Mean): 33.8 mm
[4]; [8]
  WOMAC Overall Scores, % of improvement from Oral Ibuprofen: −11.8%
  WOMAC Overall Scores, % of improvement from baseline: −45.1%
  WOMAC Overall Scores, % of improvement from placebo: −14.9%
  WOMAC Overall Scores, Changes from Baseline (LS Mean): −27.4 mm
  WOMAC Overall Scores, Different from oral ibuprofen (LS Mean): −5.9 mm
  WOMAC Overall Scores, Different from placebo (LS Mean): −9.0 mm
  WOMAC Overall Scores, Week 12 (LS Mean): 33.3 mm
[4]; [9]
  WOMAC Overall Scores, % of improvement from Oral Ibuprofen: −24.6%
  WOMAC Overall Scores, % of improvement from baseline: −57.7%
  WOMAC Overall Scores, % of improvement from placebo: −27.5%
  WOMAC Overall Scores, Changes from Baseline (LS Mean): −36.6 mm
  WOMAC Overall Scores, Different from oral ibuprofen (LS Mean): −15.2 mm
  WOMAC Overall Scores, Different from placebo (LS Mean): −18.2 mm
  WOMAC Overall Scores, Week 12 (LS Mean): 26.8 mm
[4]; [10]
  WOMAC Overall Scores, % of improvement from Oral Ibuprofen: −1.5%
  WOMAC Overall Scores, % of improvement from baseline: −42.8%
  WOMAC Overall Scores, % of improvement from placebo: −6.6%
  WOMAC Overall Scores, Changes from Baseline (LS Mean): −25.4 mm
  WOMAC Overall Scores, Week 12 (LS Mean): 34.0 mm
[4]; [11]
  WOMAC Overall Scores, % of improvement from Oral Ibuprofen: −4.6%
  WOMAC Overall Scores, % of improvement from baseline: −45.9%
  WOMAC Overall Scores, % of improvement from placebo: −9.7%
  WOMAC Overall Scores, Changes from Baseline (LS Mean): −27.7 mm
  WOMAC Overall Scores, Different from oral ibuprofen (LS Mean): −2.8 mm
  WOMAC Overall Scores, Different from placebo (LS Mean): −6.4 mm
  WOMAC Overall Scores, Week 12 (LS Mean): 32.7 mm
[4]; [12]
  WOMAC Overall Scores, % of improvement from Oral Ibuprofen: −10.6%
  WOMAC Overall Scores, % of improvement from baseline: −51.9%
  WOMAC Overall Scores, % of improvement from placebo: −15.7%
  WOMAC Overall Scores, Changes from Baseline (LS Mean): −30.9 mm
  WOMAC Overall Scores, Different from oral ibuprofen (LS Mean): −6.0 mm
  WOMAC Overall Scores, Different from placebo (LS Mean): −9.6 mm
  WOMAC Overall Scores, Week 12 (LS Mean): 28.6 mm
[4]; high dose group, Week 12
  average scores in all six subscales: below 30 mm
